We go through 44 compounds from publication PMC9459403, “New inhibitors of cathepsin V impair tumor cell proliferation and elastin degradation and increase immune cell cytotoxicity” (Computational and Structural Biotechnology Journal, 2022).

Common to all, as to format: biochemical
Assay [1] concerns the target T1, human recombinant cathepsin L (Homo sapiens, UniProt P07711).
T1 construct: made in house; host or cells: Escherichia coli
Nature of the assay: Determination of relative inhibition, substrate Z-Phe-Arg-AMC. The conditions noted are these: inhibitor 50 μM; substrate 2 μM; mean ± SD (n = 2); read-out: Cathepsin L Ri (%) relative inhibition. The method, then: (§1) Human recombinant cathepsin V was expressed in Pichia Pastoris, and human recombinant cathepsin L was expressed in Escherichia coli, as reported, [51]. To determine the activities of cathepsins V and L, 100 mM acetate buffer (pH 5.5), containing 0.1 % PEG 8000 (Sigma-Aldrich, St. Louis, MO, USA), 5 mM cysteine, and 1.5 mM EDTA was used. Prior to the assay, the enzyme was activated in the assay buffer for 5 min at 37 °C.
(§2) The effect of the inhibitors on cathepsin V and L activity was determined using the substrate Z-Phe-Arg-AMC (Bachem, Bubendorf, Switzerland). The reaction was initiated by adding 90 μL of the activated enzyme (final concentration 2.5 ng/mL and 0.02 nM for cathepsins V and L, respectively) to the wells of a black microtiter plate containing 5 μL of substrate (with a final concentration 2 μM) and 5 μL of inhibitor (with a final concentration of 50 μM). The formation of fluorescent degradation products during the reaction was monitored continuously at 460 nm ± 10 nm with excitation at 380 nm ± 20 nm at 37 °C on a Tecan Infinite M1000 (Mannedorf, Switzerland) spectrofluorometer. All assay mixtures contained 5 % (v/v) DMSO. To prevent false-positive inhibition due to the formation of compound aggregates, 0.01 % Triton X-100 was used. All measurements were performed in triplicate and repeated at least twice. Relative inhibition was calculated using the following equation: relative inhibition (%) = 100(1- vi/vo), where vi and vo denote the reaction velocities in the presence and absence of the inhibitor, respectively.

Assay [2] concerns the target T2, Cathepsin V (Homo sapiens, UniProt O60911).
T2 construct: made in house; host or cells: Pichia pastoris
Described as above. The conditions noted are these: inhibitor 50 μM; substrate 2 μM; mean ± SD (n = 2); read-out: Cathepsin V Ri (%) relative inhibition. The protocol: as §1, §2

Assay [3] has as its target T1, human recombinant cathepsin L. Nature of the assay: Determination of Ki values and mode of inhibition. The conditions noted are these: mean ± SD (n = 2). The protocol:
as §1
(§3) Inhibition constants were calculated from reaction velocities measured at three substrate concentrations (0.5, 1, and 4 μM) in the presence of inhibitors at seven concentrations (0, 20, 40, 60, 80, 100, and 200 µM). The reaction was initiated by adding 90 μL of enzyme at final concentrations of 2.5 ng/mL and 0.02 nM for cathepsins V and L, respectively, to the wells of a black microtiter plate containing 5 μL of substrate and 5 μL of inhibitor. To evaluate cathepsin V and L activity, the substrate Z-Phe-Arg-AMC was used. The formation of the fluorescent degradation products was monitored as described above. All assay mixtures contained 5 % (v/v) DMSO. All measurements were performed in duplicates and repeated at least twice. The SigmaPlot® 12, Enzyme Kinetics Module™ 1.3 was used to calculate Ki values.

Assay [4] concerns the target T2, Cathepsin V. Nature of the assay: Determination of Ki values and mode of inhibition. To be noted: mean ± SD (n = 2). The protocol: as §1, §3

Marks after values point to notes of the source that are not given here.

T1 sequence (P07711 114-333): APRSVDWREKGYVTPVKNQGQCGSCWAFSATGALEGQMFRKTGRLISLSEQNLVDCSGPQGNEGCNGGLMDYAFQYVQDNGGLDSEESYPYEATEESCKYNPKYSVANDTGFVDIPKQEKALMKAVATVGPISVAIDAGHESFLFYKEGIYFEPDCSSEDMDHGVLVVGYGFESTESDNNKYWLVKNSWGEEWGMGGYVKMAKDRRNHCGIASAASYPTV
T2 sequence (O60911 114-334): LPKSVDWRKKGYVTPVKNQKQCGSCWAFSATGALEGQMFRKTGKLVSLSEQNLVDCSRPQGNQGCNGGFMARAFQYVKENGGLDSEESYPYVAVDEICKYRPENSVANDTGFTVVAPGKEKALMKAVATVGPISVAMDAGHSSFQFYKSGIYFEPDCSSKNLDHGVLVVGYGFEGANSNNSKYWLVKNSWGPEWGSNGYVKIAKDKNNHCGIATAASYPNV

As usually defined, the inhibition is the relative decrease from the control value, in per cent. As for `O=C(CN1Cc2ccccc2C1)NC1CCCN(Cc2cccc(O)c2)C1` (stereo not drawn) [Compound 29], the inhibition at 50 µM is -2.4 ± 2% in assay [1] and -0.5 ± 1.2% in assay [2].
The matching figures for `COc1ccc(CNC(=O)NCC2CCN(C(=O)Oc3ccccc3)CC2)cc1` [Compound 47]: 4.4 ± 4.6% and 9.5 ± 2.5%.
The matching figures for `COC(=O)Cc1c[nH]c2ccc(OCC(O)CNC(C)C)cc12` (stereo not drawn) [Compound 52]: -0.7 ± 1.5% and 0.3 ± 8.8%.
`O=C(NCCN1CCN(c2ccc(Cl)cc2)CC1)[C@H]1CC(=O)N(c2ccccc2)C1` [Compound 8]: the inhibition at 50 µM was -4.4 ± 2.1% in assay [1] and -20.3 ± 3.5% in assay [2].
The matching figures for `CCOC(=O)N1CCC(NC(=O)NCc2ccc(OC)cc2)CC1` [Compound 33]: 3.4 ± 4.4% and -1.6 ± 6.5%.
The matching figures for `COc1ccc(CNC(=O)NCC2CCN(C(=O)N(C)C)CC2)cc1` [Compound 46]: 4.3 ± 4.1% and 12.1 ± 9.8%.
For `COCCN1CCC(CNC(=O)NCc2ccc(OC)cc2)CC1` [Compound 43], in that order: -0.4 ± 2.5% and 5.2 ± 1.8%.
The Ki is a measure of affinity in units of concentration, obtained from inhibition or displacement. With `Cc1nc(C2OC2C(=O)c2ccccc2OCc2ccccc2)cs1` (stereo not drawn) [Compound 39], the inhibition at 50 µM was 6.1 ± 0.7% in assay [1] and 17.1 ± 7.2% in assay [2]. For the same compound, the “Cathepsin L Ki′ (µM)” value in assay [3] is 725.7 ± 142.3^e µM. The values for the Ki in assay [3] and in assay [4] were 726 ± 142 µM and 403 ± 79.7 µM, respectively.
In the case of `COC(=O)N1CCC(CNC(=O)NC(c2ccccc2)c2ccccc2)CC1` [Compound 45], the values for the inhibition at 50 µM in assay [1] and in assay [2] were 3.3 ± 2.4% and 9.2 ± 6.4%, respectively.
Consider `O=C(NCc1nnc2c(C(F)(F)F)cccn12)c1cc2cc(Cl)ccc2[nH]1` [Compound 20], for which the inhibition at 50 µM in assay [1] came to 14.5 ± 2.4%; in assay [2], 16.9 ± 0.6%.
For `O=C(Nc1cc(Cl)ccc1Cl)c1cnc2n(c1=O)CCS2` [Compound 1], in that order: 4.8 ± 3.9% and -5.4 ± 2.4%.
Consider `O=C(NCc1nnc2c(C(F)(F)F)cccn12)c1cc(-c2cccs2)n[nH]1` [Compound 19], for which the inhibition at 50 µM worked out at 17.8 ± 13.7% in assay [1] and 3.8 ± 3.5% in assay [2].
For `COc1ccc(CNC(=O)N2CCC(C(N)=O)CC2)cc1` [Compound 36], in that order: -0.6 ± 1.7% and 15.2 ± 10%.
Take `COC(=O)Cc1c[nH]c2ccc(OCC3CO3)cc12` (stereo not drawn) [Compound 21]: the inhibition at 50 µM is 15.3 ± 2.9% in assay [1] and over 20% in assay [2]. In addition, the results for the Ki in assay [3] and in assay [4] were 236 ± 10.3 µM and 159 ± 32.8 µM, respectively.
Regarding `COC(=O)N1CCC(CNC(=O)NCc2cccc3ccccc23)CC1` [Compound 44], the figures for the inhibition at 50 µM in assay [1] and in assay [2] were 1.1 ± 4.9% and 11.1 ± 11.5%, respectively.
For `O=C(Nc1nc2c(s1)CN(Cc1ccccc1)CC2)c1ccccc1` [Compound 32], in that order: 4.7 ± 3.2% and 6.9 ± 2.2%.
The matching figures for `Brc1ccccc1CNc1ncncc1-c1nc(-c2ccsc2)no1` [Compound 11]: 6.3 ± 2.6% and -3.1 ± 4.6%.
For `Cc1nccc(O[C@H]2CCN(S(=O)(=O)/C=C/c3ccccc3)C2)n1` [Compound 16], in that order: -1 ± 4.8% and -6.5 ± 0.9%.
For the compound `CNC(=O)C1(COC)CCCN1C(=O)CN1CCOCC1=O` (stereo not drawn) [Compound 38], the inhibition at 50 µM was found to be 2.3 ± 3.1% in assay [1] and 7.9 ± 0.4% in assay [2].
For `O=C(NCC(O)CN1CCOCC1)c1cc2cc(Br)ccc2[nH]1` (stereo not drawn) [Compound 35], in that order: 12 ± 1.3% and 16.6 ± 8.4%.
The matching figures for `Cc1cc(CNC(=O)Cc2cccc3ccccc23)ncn1` [Compound 17]: 9.4 ± 9.5% and -2.4 ± 5.6%.
For `COc1ccc(C(=O)C2OC2c2cc3ccccc3o2)c(OCc2ccccc2)c1` (stereo not drawn) [Compound 22], in that order: 11.1 ± 4.4% and -7.2 ± 7.7%.
As for `O=C(c1cc(Br)ccc1OCc1ccccc1)C1OC1c1cc2ccccc2o1` (stereo not drawn) [Compound 26], the values for the inhibition at 50 µM in assay [1] and in assay [2] were 10.6 ± 4.5% and 6.3 ± 4.6%, respectively. For the same compound, the Ki in assay [3] turned out to be 375 ± 20.5 µM.
The matching figures for `Cc1ccc(Cl)c2sc(NC(=O)c3ccc(S(=O)(=O)N4CCc5ccccc5C4)cc3)nc12` [Compound 2]: 20 ± 2.2%, 16.4 ± 0.3% and 162 ± 1.8 µM.
For the compound `Cc1noc(-c2cccn3c(CNC(=O)c4cc(-c5cccs5)n[nH]4)nnc23)n1` [Compound 18], the figures for the inhibition at 50 µM in assay [1] and in assay [2] were 13 ± 7.9% and 6.7 ± 0.03%, respectively.
The matching figures for `O=C(NCc1cccc2ccccc12)Nc1ccc2c(c1)CCCN2C(=O)c1cccs1` [Compound 10]: 21.5 ± 1.2% and 17.8 ± 3.3%.
For the compound `O=C(NCC1CCN(C(=O)Oc2ccccc2)CC1)c1ccccc1` [Compound 48], the inhibition at 50 µM in assay [1] was 5.7 ± 3.6%; in assay [2] it was 20.4 ± 14.5%. Also, the values for the Ki in assay [3] and in assay [4] were 1190 ± 357 µM and 1190 ± 468 µM, respectively.
Regarding `O=c1cc(-c2ccccc2)c2cc(Cl)c(OCC3CO3)cc2o1` (stereo not drawn) [Compound 23], the inhibition at 50 µM in assay [1] is 11.9 ± 6.2%; in assay [2], -2.9 ± 1.8%.
As for `O=C(c1cc(F)ccc1OCc1ccccc1)C1OC1c1ccc2c(c1)OCCO2` (stereo not drawn) [Compound 24], the inhibition at 50 µM amounted to 17.7 ± 11.7% in assay [1] and 0.8 ± 3.3% in assay [2].
Take `COc1ccc(NC(C)=O)cc1NC(=O)c1n[nH]c2ccccc12` [Compound 6]: the inhibition at 50 µM is 40.3 ± 4.5% in assay [1] and over 20% in assay [2]. Besides, the Ki in assay [3] was found to be 635 ± 167 µM; in assay [4], 371 ± 86.1 µM.
For the compound `COc1ccc(CNC(=O)N2CCC(C(=O)N3CCCCC3)CC2)cc1` [Compound 50], the inhibition at 50 µM in assay [1] is 13.8 ± 0.5%; in assay [2], -2.9 ± 4%.
The matching figures for `O=C(N[C@H]1CCCN(Cc2ccccc2)C1)c1ccc(CN2CCCC2)o1` [Compound 28]: -4.6 ± 5.2% and 1.1 ± 9%.
For `Cc1c(C(=O)N2CC(N3CCc4ccccc4C3)C2)cnn1-c1ccccc1` [Compound 15], in that order: -5.4 ± 7.3% and -27.6 ± 9.1%.
Consider `Cc1cc(C)c2sc(NC(=O)c3ccc(S(=O)(=O)N4CCc5ccccc5C4)cc3)nc2c1` [Compound 3], for which the inhibition at 50 µM in assay [1] was found to be 147 ± 88.7%.
As to `CN(C)c1ccc(CC(=O)NC2CCCN(Cc3cccnc3)C2)cc1` (stereo not drawn) [Compound 30], the inhibition at 50 µM in assay [1] was -1.2 ± 0.3%; in assay [2] it was -2 ± 3.3%.
The matching figures for `O=C(Nc1ccc(F)cc1)OC1CCCC(NC(=O)c2c(F)cccc2F)C1` (stereo not drawn) [Compound 13]: 13.4 ± 1.4% and 7.5 ± 5%.
The matching figures for `Cc1[nH]c(C(=O)NCCCc2nc3ccccc3[nH]2)c(C)c1C(=O)OC(C)C` [Compound 37]: -2.1 ± 0.7% and -3.4 ± 2.9%.
`Cc1cc(OCc2ccccc2)c(C(=O)C2OC2c2csc(-c3ccccc3)n2)cc1C` (stereo not drawn) [Compound 49]: the inhibition at 50 µM was found to be 12.9 ± 0.5% in assay [1] and 22.9 ± 1% in assay [2]. Further, the Ki in assay [3] worked out at 546 ± 114 µM; in assay [4], 303 ± 11.3 µM.
As for `O=C(Nc1nc2c(s1)CN(Cc1ccccc1)CC2)c1ccc(-c2ccccc2)cc1` [Compound 31], the inhibition at 50 µM in assay [1] was determined as 20.9 ± 7.2%; in assay [2], 29.2 ± 7%.
The matching figures for `COc1ccc(-c2cn3c(CCC(=O)Nc4nc5ccccc5s4)csc3n2)cc1` [Compound 9]: 17.5 ± 5.3% and 18.9 ± 1.3%.
As for `O=C(NC[C@H]1CCCN1c1ccccc1)c1cccnc1` [Compound 14], the inhibition at 50 µM in assay [1] was 13.1 ± 2.6%; in assay [2] it was 7.8 ± 3.1%.
As to `O=C(NC(Cc1ccccc1)C(=O)O)C1CCC(CNC(=O)C2Cc3ccccc3CN2)CC1` (stereo not drawn) [Compound 51], the inhibition at 50 µM was -4 ± 7.3% in assay [1] and -9.8 ± 5.8% in assay [2].
Consider `CC(=O)N1CCc2cc(C(=O)C(C)OC(=O)CCc3nc(-c4cccs4)no3)ccc21` (stereo not drawn) [Compound 34], for which the inhibition at 50 µM in assay [1] was -3 ± 0.5%.
With `CC1Oc2ccccc2OC1C(=O)NCC#CCN1CCc2ccccc2C1` (stereo not drawn) [Compound 12], the inhibition at 50 µM in assay [1] is 15.6 ± 1.2%; in assay [2], -9.5 ± 9.2%.
